According to ChEMBL document CHEMBL1201862, “PubChem BioAssay data set” (2004):
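A five-concentration, 48-hour dose response in 96-well plates underlies each endpoint, interpolated linearly between surrounding concentrations. GI50 = concentration required for 50% inhibition of growth.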 Active and inactive are the calls of the source. No stated cut-off is given here; in the data, active = GI50 up to about 1.1 µM and inactive = higher.

Legend:
Experiment in all cases: growth of human tumour cells (NCI), 48 h
ACHN = tested on: ACHN
RPMI-8226 = tested on: RPMI-8226
K562 = tested on: K562
IGROV-1 = tested on: IGROV-1
786-0 = tested on: 786-0
A549 = tested on: A549
SK-MEL-28 = tested on: SK-MEL-28
SK-MEL-2 = tested on: SK-MEL-2
UO-31 = tested on: UO-31
HL-60 = tested on: HL-60
CAKI-1 = tested on: CAKI-1
LOX IMVI = tested on: LOX IMVI
SK-MEL-5 = tested on: SK-MEL-5
SNB-19 = tested on: SNB-19
Malme-3M = tested on: Malme-3M

Row | SMILES | GI50 (ACHN) | GI50 (RPMI-8226) | GI50 (K562) | GI50 (IGROV-1) | GI50 (786-0) | GI50 (A549) | GI50 (SK-MEL-28) | GI50 (SK-MEL-2) | GI50 (UO-31) | GI50 (HL-60) | GI50 (CAKI-1) | GI50 (LOX IMVI) | GI50 (SK-MEL-5) | GI50 (SNB-19) | GI50 (Malme-3M)
1 | CCC(C)(C)C(=O)O[C@H]1C[C@@H](C)C=C2C=C[C@H](C)[C@H](CC[C@@H]3C[C@@H](O)CC(=O)O3)[C@H]21 [SIMVASTATIN] | 0.447 µM (active) | 8.2 µM (inactive) | 17.6 µM (inactive) | 0.647 µM (active) | 9.33 µM (inactive) | 5.79 µM (inactive) | > 30 µM (inactive) | 0.522 µM (active) | 3.72 µM (inactive) | 3.01 µM (inactive) | 4.03 µM (inactive) |  |  |  | 
2 | C#CCC(O)c1ccccc1C(O)CC#C (centres undefined) | 75.5 µM (inactive) | > 100 µM (inactive) | > 100 µM (inactive) | > 100 µM (inactive) | > 100 µM (inactive) | > 100 µM (inactive) | > 100 µM (inactive) | 62.1 µM (inactive) | > 100 µM (inactive) | > 100 µM (inactive) | 65.2 µM (inactive) | > 100 µM (inactive) | > 100 µM (inactive) | > 100 µM (inactive) | 79.4 µM (inactive)
3 | CC1(C)COC(c2cccnc2/C=N/O)=N1 | > 100 µM (inactive) |  | > 100 µM (inactive) | > 100 µM (inactive) | > 100 µM (inactive) | > 100 µM (inactive) | > 100 µM (inactive) | > 100 µM (inactive) | > 100 µM (inactive) | > 100 µM (inactive) | > 100 µM (inactive) | > 100 µM (inactive) | > 100 µM (inactive) | > 100 µM (inactive) | > 100 µM (inactive)
4 | C=CCC12CCC(=O)C=C1CCC1(C2)OCCO1 (centres undefined) | > 100 µM (inactive) | > 100 µM (inactive) | 55.2 µM (inactive) | > 100 µM (inactive) | > 100 µM (inactive) | > 100 µM (inactive) | > 100 µM (inactive) | > 100 µM (inactive) | > 100 µM (inactive) | 40.4 µM (inactive) | > 100 µM (inactive) |  | > 100 µM (inactive) | > 100 µM (inactive) | > 100 µM (inactive)
5 | Oc1ccc2ccccc2c1/N=N/c1ccc(F)cc1 | > 100 µM (inactive) | > 100 µM (inactive) | > 100 µM (inactive) | > 100 µM (inactive) | > 100 µM (inactive) | > 100 µM (inactive) | > 100 µM (inactive) | > 100 µM (inactive) | 42.6 µM (inactive) | > 100 µM (inactive) | > 100 µM (inactive) | > 100 µM (inactive) | > 100 µM (inactive) | > 100 µM (inactive) | > 100 µM (inactive)
6 | O=C1C(=O)N(c2ccc(Cl)cc2)C(=O)C(=O)C1c1nc2ccccc2s1 | 89.3 µM (inactive) | > 100 µM (inactive) | > 100 µM (inactive) | 71 µM (inactive) | > 100 µM (inactive) |  | > 100 µM (inactive) | > 100 µM (inactive) | > 100 µM (inactive) |  | > 100 µM (inactive) | > 100 µM (inactive) | > 100 µM (inactive) | > 100 µM (inactive) | > 100 µM (inactive)
7 | N#CC1CC(c2ccccc2)Nc2cc(Cl)ccc2N1 (centres undefined) | 61.5 µM (inactive) | 6.31 µM (inactive) | 9.14 µM (inactive) | 69.7 µM (inactive) | 24.1 µM (inactive) | 37.6 µM (inactive) | > 93.8 µM (inactive) | 29.1 µM (inactive) | > 100 µM (inactive) | 4.1 µM (inactive) | 34.8 µM (inactive) | 33.1 µM (inactive) | 41.2 µM (inactive) | > 50.5 µM (inactive) | 24 µM (inactive)
8 | COc1cc(-c2c(C)c(C)nc(OC)c2C#N)cc(OC)c1OC | > 100 µM (inactive) | 37.4 µM (inactive) | 58.7 µM (inactive) | > 100 µM (inactive) | > 100 µM (inactive) | > 100 µM (inactive) | > 100 µM (inactive) | > 100 µM (inactive) | 31.5 µM (inactive) | 24.4 µM (inactive) |  |  | > 100 µM (inactive) | > 100 µM (inactive) | > 100 µM (inactive)
9 | N#Cc1cc([N+](=O)[O-])ccc1NC(=O)C(=O)C(C(=O)/C=C/c1ccccc1)C1OC(=O)c2ccccc21 (centres undefined) | > 100 µM (inactive) |  | 13.9 µM (inactive) | > 100 µM (inactive) | > 100 µM (inactive) | > 100 µM (inactive) | > 100 µM (inactive) |  | > 100 µM (inactive) | > 100 µM (inactive) | > 100 µM (inactive) | > 100 µM (inactive) | > 100 µM (inactive) | > 100 µM (inactive) | > 100 µM (inactive)
10 | Cc1cc(N(CCC#N)CCC#N)ccc1/C=C1N=C(/C=C\c2ccccc2)N(NC(=O)CC(=O)Nc2ccccc2Cl)C\1=O | > 100 µM (inactive) | > 100 µM (inactive) | > 100 µM (inactive) | > 100 µM (inactive) | > 100 µM (inactive) | > 100 µM (inactive) | > 100 µM (inactive) | > 100 µM (inactive) | > 100 µM (inactive) | > 100 µM (inactive) | > 100 µM (inactive) | > 100 µM (inactive) | > 100 µM (inactive) | > 100 µM (inactive) | > 100 µM (inactive)
11 | N#CC(C#N)c1ccc(C(=O)N2CCC[C@H]2CO)cc1 | > 100 µM (inactive) | > 100 µM (inactive) | > 100 µM (inactive) | > 100 µM (inactive) | > 100 µM (inactive) | > 100 µM (inactive) | > 100 µM (inactive) | > 100 µM (inactive) | > 100 µM (inactive) | > 100 µM (inactive) | > 100 µM (inactive) | > 100 µM (inactive) | 0.471 µM (active) | > 100 µM (inactive) | > 100 µM (inactive)
12 | c1ccc(SC2(Sc3ccccc3)CCCC2)cc1 | > 100 µM (inactive) | > 100 µM (inactive) | > 100 µM (inactive) |  | > 100 µM (inactive) | > 100 µM (inactive) | > 100 µM (inactive) | > 100 µM (inactive) | > 100 µM (inactive) | > 100 µM (inactive) | > 100 µM (inactive) | > 100 µM (inactive) | > 100 µM (inactive) | > 100 µM (inactive) | 
13 | CCOc1ccc(NC(=O)/C(CC(=O)c2c[n+]([O-])c3ccccc3[n+]2[O-])=N\OCCCc2ccccc2)cc1 | > 100 µM (inactive) | > 100 µM (inactive) | 62.5 µM (inactive) | > 100 µM (inactive) | > 100 µM (inactive) | > 100 µM (inactive) | > 100 µM (inactive) | > 100 µM (inactive) | > 100 µM (inactive) | > 100 µM (inactive) | > 100 µM (inactive) |  |  | > 100 µM (inactive) | > 100 µM (inactive)
14 | O=c1cccccc1NCCCCCCCCCNc1cccccc1=O | 4.28 µM (inactive) | 4.4 µM (inactive) | 3.35 µM (inactive) | 19 µM (inactive) | 22.1 µM (inactive) | 9.66 µM (inactive) |  | 19 µM (inactive) | 12 µM (inactive) | 4.06 µM (inactive) | 13.3 µM (inactive) | 5.9 µM (inactive) |  | 11.5 µM (inactive) | 7.52 µM (inactive)
15 | COc1ccc(/C=C\c2cc(OC)c(O[Si](C)(C)C(C)(C)C)c(OC)c2)cc1 | 31.2 µM (inactive) | 27.4 µM (inactive) | 39.1 µM (inactive) | > 100 µM (inactive) | 39.9 µM (inactive) | 38.6 µM (inactive) | 13.2 µM (inactive) | 23.9 µM (inactive) | 80.9 µM (inactive) |  | 49.3 µM (inactive) |  | > 10 µM (inactive) | 47.6 µM (inactive) | 34.8 µM (inactive)
16 | CC(=O)OC1CC2(c3ccccc3)C(=O)c3ccccc3N2O1 (centres undefined) | > 100 µM (inactive) | > 100 µM (inactive) | > 100 µM (inactive) | > 100 µM (inactive) | > 100 µM (inactive) | > 100 µM (inactive) | > 100 µM (inactive) |  | > 100 µM (inactive) | > 100 µM (inactive) |  |  | > 100 µM (inactive) | > 100 µM (inactive) | > 100 µM (inactive)
17 | CNS(=O)(=O)NNS(=O)(=O)c1ccc(OC)cc1 | > 100 µM (inactive) | > 100 µM (inactive) | > 100 µM (inactive) | > 100 µM (inactive) | > 100 µM (inactive) | > 100 µM (inactive) |  | > 100 µM (inactive) | > 100 µM (inactive) | > 100 µM (inactive) | > 100 µM (inactive) | > 100 µM (inactive) | > 100 µM (inactive) | > 100 µM (inactive) | > 100 µM (inactive)
18 | CC1=C(C(=O)O)N2C(=O)[C@@H](NC(=O)C(c3ccccc3)N3CSC(=S)N(C(C)C)C3)C2SC1 (some centres undefined) | > 100 µM (inactive) | > 100 µM (inactive) | 74.1 µM (inactive) | > 100 µM (inactive) | > 100 µM (inactive) |  | 59 µM (inactive) | > 100 µM (inactive) | > 100 µM (inactive) | > 100 µM (inactive) | > 100 µM (inactive) | > 100 µM (inactive) | > 100 µM (inactive) | > 100 µM (inactive) | > 100 µM (inactive)
19 | COc1cccc2[s+]snc12 | 47.8 µM (inactive) |  | 25.7 µM (inactive) | > 100 µM (inactive) | 33.6 µM (inactive) | 77.6 µM (inactive) | > 100 µM (inactive) | 27.2 µM (inactive) | 25.1 µM (inactive) | 23.9 µM (inactive) | 66.1 µM (inactive) | 33.6 µM (inactive) | 24.3 µM (inactive) | 50.6 µM (inactive) | > 100 µM (inactive)
